Reference: PubChem BioAssay (NCI)
Where “and” joins values, the source holds several entries; their conditions need not be identical. Identical values can stand only once.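 Step 1: Grow cells in 96-well plates. Step 2: Expose to compound for 48 hours at 5 concentrations. Step 3: Interpolate endpoints linearly; if unreached, use highest concentration. GI50 = concentration required for 50% inhibition of growth. The concentration for full growth arrest is given as TGI.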

Experiments:
Assay in all cases: NCI-60 cell line screen, 48 h
OVCAR-5 ovarian = tested on: OVCAR-5 ovarian
TK-10 renal = tested on: TK-10 renal
NCI-H522 lung = tested on: NCI-H522 lung
NCI-H23 lung = tested on: NCI-H23 lung
MOLT-4 leukemia = tested on: MOLT-4 leukemia
SF-295 CNS = tested on: SF-295 CNS
SK-MEL-28 melanoma = tested on: SK-MEL-28 melanoma
OVCAR-8 ovarian = tested on: OVCAR-8 ovarian
A498 renal = tested on: A498 renal
SW-620 colon = tested on: SW-620 colon

| Compound | GI50 (OVCAR-5 ovarian) [µM] | TGI (OVCAR-5 ovarian) [µM] | GI50 (TK-10 renal) [µM] | TGI (TK-10 renal) [µM] | GI50 (NCI-H522 lung) [µM] | TGI (NCI-H522 lung) | GI50 (NCI-H23 lung) [µM] | TGI (NCI-H23 lung) [µM] | GI50 (MOLT-4 leukemia) [µM] | TGI (MOLT-4 leukemia) | GI50 (SF-295 CNS) [µM] | TGI (SF-295 CNS) [µM] | GI50 (SK-MEL-28 melanoma) [µM] | TGI (SK-MEL-28 melanoma) | GI50 (OVCAR-8 ovarian) [µM] | TGI (OVCAR-8 ovarian) | GI50 (A498 renal) [µM] | TGI (A498 renal) [µM] | GI50 (SW-620 colon) [µM] | TGI (SW-620 colon) [µM] |
| --- | --- | --- | --- | --- | --- | --- | --- | --- | --- | --- | --- | --- | --- | --- | --- | --- | --- | --- | --- | --- |
| CN1C(=O)N(C)C2C1NN=c1s/c(=C\c3ccc(F)cc3)c(=O)n12 (configuration not stated) | 5.44 | > 100 | 6.06 | > 100 | 2.22 | > 100 µM | 4.23 | > 100 | 3.07 | > 100 µM | 2.45 | > 100 | 7.31 | > 100 µM | 3.78 | > 100 µM | 1.39 | 6.77 | 1.86 | > 100 |
| COc1ccc(/C=C\c2cc(OC)c(O[Si](C)(C)C(C)(C)C)c(OC)c2)cc1 | – | > 100 | – | – | – | > 100 µM | – | > 100 | – | 38.8 µM | – | – | – | 43.4 µM | – | > 100 µM | – | 81.1 | – | > 100 |
| Cc1ccccc1C1=C(C(=O)Nc2ccc(Cl)c(Cl)c2)NC(=S)NC1N (configuration not stated) | – | > 100 | – | > 100 | – | > 100 µM | – | > 100 | – | > 100 µM | – | – | – | > 100 µM | – | > 100 µM | – | > 100 | – | > 100 |
| O=C(N/N=C(/CCN1CCCC1)CC(c1ccccc1)c1c(O)c2ccccc2oc1=O)c1ccncc1 (configuration not stated) | – | > 100 | – | > 100 | – | > 100 µM | – | > 100 | – | – | – | > 100 | – | – | – | > 100 µM | – | > 100 | – | > 100 |
| NCCCCNc1ccc2c(=O)[nH][nH]c(=O)c2c1 | – | > 100 | – | > 100 | – | > 100 µM | – | > 100 | – | > 100 µM | – | > 100 | – | > 100 µM | – | > 100 µM | – | > 100 | – | > 100 |
| Nc1ccccc1C#C/C=C\C#Cc1ccccc1[N+](=O)[O-] | 17.4 | 33.6 | 28.2 | > 100 | 7.25 | 39.8 µM | 12.4 | 38.5 | 27.7 | > 100 µM | 7.31 | 85.8 | 15.4 | 34.8 µM | 4.83 | 32.9 µM | 25.4 | 69.7 | 0.942 | 88.8 |
| Cc1ccc(-c2csc(NC(=O)CN3CCN(c4cc5c(cc4F)c(=O)c(C(=O)O)cn5C4CC4)CC3)n2)cc1 | 3.48 | 39.8 | – | – | 0.322 | 3.09 µM | 0.39 | 13.3 | 1.23 | > 100 µM | 1.15 | 13.9 | 1.94 | > 100 µM | 0.388 | 11.7 µM | 1.02 | 10.3 | 0.95 | > 100 |
| COC(=O)C(=O)C(C(=O)C(=O)Nc1cccc(C(C)=O)c1)c1nc2ccccc2[nH]c1=O (configuration not stated) | – | > 100 | – | > 100 | – | > 100 µM | – | > 100 | – | > 100 µM | – | > 100 | – | > 100 µM | – | – | – | > 100 | – | > 100 |
| COc1ccc2c(c1)/C(=C\c1c(Cl)[nH]c3ccc(OC)cc13)C(=O)N2 | 77.3 | > 100 | 44 | > 100 | 26.8 | 74.4 µM | > 100 | > 100 | 46.9 | > 100 µM | 19.9 | 45.8 | 15.9 | 40.4 µM | 34.1 | > 100 µM | – | – | 20 | 48.9 |
| CC(=O)NC(CCCCNC(=O)NCCCl)C(=O)NCc1ccccc1 (configuration not stated) | – | – | – | > 100 | – | > 100 µM | – | > 100 | – | > 100 µM | – | > 100 | – | > 100 µM | – | > 100 µM | – | – | – | > 100 |
| C/C(CCc1ccccc1)=N\NC(N)=S | – | > 100 | – | > 100 | – | – | – | > 100 | – | > 100 µM | – | > 100 | – | > 100 µM | – | > 100 µM | – | > 100 | – | > 100 |
| N#CCCN(CCC#N)c1ccc(C(Sc2ccccc2)C(NC(=O)c2cc([N+](=O)[O-])ccc2Cl)C(=O)Sc2ccccc2)cc1 (configuration not stated) | – | 11.7 | 3.97 | 9.62 | – | 5.5 µM and 1.6 µM | 2.84 | 13.5 | 0.565 | 2.56 µM and 2.95 µM | – | 13.1 | 3.24 | 7.06 µM and 14.2 µM | 1.63 | 4.95 µM and 3.69 µM | – | – | 3.77 | 14.3 |
| Cc1cccc(-n2c(=S)[nH]c3c(sc(=O)n3-c3ccccc3C)c2=O)c1 | – | > 100 | – | – | – | > 100 µM | – | > 100 | – | > 100 µM | – | > 100 | – | > 100 µM | – | > 100 µM | – | > 100 | – | > 100 |
| CCOC(=O)c1cc(/C=C/C(C)=C/C(=O)OC)oc1C | – | > 100 | – | > 100 | – | > 100 µM | – | > 100 | – | > 100 µM | – | > 100 | – | > 100 µM | – | > 100 µM | – | – | – | > 100 |
| O=C(c1ccncc1)n1nc(-c2ccccc2)c(N=Nc2ccccc2[N+](=O)[O-])c1-c1ccccc1 | – | – | – | > 100 | – | > 100 µM | – | > 100 | – | > 100 µM | – | > 100 | – | > 100 µM | – | > 100 µM | – | > 100 | – | > 100 |
| O=C(O)C1CCCCC1C(=O)O.[NH-]C1CCC1.[NH2-].[Pt+2] (configuration not stated) | 18.3 | 34 | 18.1 | 34.4 | 7.21 | > 100 µM | 22.4 | > 100 | 5.48 | > 100 µM | 42.6 | > 100 | 15.9 | 31.4 µM | > 100 | > 100 µM | – | – | 14.4 | 44.5 |
| NC(=S)NNc1c([N+](=O)[O-])cnn(-c2ccccc2)c1=O | – | 32.4 | – | 46.6 | – | 33.6 µM | – | 34.4 | – | 62.5 µM | – | 29.4 | – | 30.8 µM | – | 31.8 µM | – | – | – | 26.4 |
| CN(C)CCCNC(=O)c1ccc2c(c1)oc1cc3ccccc3c(=O)n12 | – | – | 25.1 | > 50 | 9.33 | 21.8 µM | 35.4 | > 50 | 18.4 | > 50 µM | 19 | 40.5 | 14.5 | 29.3 µM | 10.1 | 24.9 µM | – | – | 15.5 | > 50 |
